Laboratory results taken from US20120252741A1, “NOVEL SEMI-SYNTHETIC GLYCOPEPTIDES AS ANTIBACTERIAL AGENTS” (priority 2008, published 2012).
In brackets after ≈: the same amount, converted by molar mass. Read-outs that look alike come from different tables or passages of the source.

Tests used:
Assay type in all cases: cell-based
[1] = test system: Staphylococcus aureus 100 (ATCC 29213); assay: MIC, broth microdilution, SA 100; settings: Staphylococcus aureus, ATCC29213, class symbols, read-out: MIC SA 100
Method: (§1) Antibacterial activity in vitro is investigated by broth microdilution method in Meuller-Hinton broth as recommended by NCCLS. All strains tested are clinical isolates either sensitive or resistant to natural glycopeptides. MIC values were determined using the CLSI-recommended broth microdilution procedure (Clinical and Laboratory Standards Institute, Methods for Dilution Antimicrobial Susceptibility Tests for Bacteria That Grow Aerobically; Approved Standard-Seventh Edition.). Automated liquid handlers (Multidrop 384, Labsystems, Helsinki, Finland; Biomek 2000 and Multimek 96, Beckman Coulter, Fullerton Calif.) were used to conduct serial dilutions and liquid transfers. The MIC value for vancomycin is given for comparison. The abbreviations for organisms tested are as follow: SA 100—Staphylococcus aureus 100 (ATCC 29213); SA 757—Staphylococcus aureus 757 (MRSA); SA 2012—Staphylococcus aureus 2012 (VISA); SE 835—Staphylococcus epidermidis 835; SE 831—Staphylococcus epidermidis 831 (MRSE); EFc 101—Enterococcus faecalis 101 (ATCC 29212); EFc 848—Enterococcus faecalis 848 (VRE, Van A); EFcm 800—Enterococcus faecium 800; EFcm 752—Enterococcus faecium 752 (VRE, Van A); SPNE 1195—Streptococcus pneumoniae 1195 (ATCC 49619); SPY 712—Streptococcus pyogenes 712.

[2] = test system: Staphylococcus aureus 757 (MRSA); assay: MIC, broth microdilution, SA 757; settings: read-out: MIC SA 757
Method: as §1

[3] = test system: Staphylococcus aureus 2012 (VISA); assay: MIC, broth microdilution, SA 2012; settings: read-out: MIC SA 2012
Method: as §1

[4] = test system: Staphylococcus epidermidis 835; assay: MIC, broth microdilution, SE 835; settings: Staphylococcus epidermidis, 835, class symbols, read-out: MIC SE 835
Method: as §1

[5] = test system: Staphylococcus epidermidis 831 (MRSE); assay: MIC, broth microdilution, SE 831; settings: Staphylococcus epidermidis, read-out: MIC SE 831
Method: as §1

[6] = test system: Enterococcus faecalis 101 (ATCC 29212); assay: MIC, broth microdilution, EFc 101; settings: Enterococcus faecalis, ATCC29212, class symbols, read-out: MIC E FC 101
Method: as §1

[7] = test system: Enterococcus faecalis 848 (VRE, Van A); assay: MIC, broth microdilution, EFc 848; settings: VRE, Van A, class symbols, read-out: MIC E FC 848
Method: as §1

Enterococcus faecium 800 = assay: MIC, broth microdilution, EFcm 800; settings: Enterococcus faecium, 800, class symbols, read-out: MIC E FCM 800
Method: as §1

[8] = test system: Enterococcus faecium 752 (VRE, Van A); assay: MIC, broth microdilution, EFcm 752; settings: VRE, Van A, class symbols, read-out: MIC E FCM 752
Method: as §1

[9] = test system: Streptococcus pneumoniae 1195 (ATCC 49619); assay: MIC, broth microdilution, SPNE 1195; settings: Streptococcus pneumoniae, ATCC49619, class symbols, read-out: MIC S PNE 1195
Method: as §1

[10] = test system: Streptococcus pyogenes 712; assay: MIC, broth microdilution, SPY 712; settings: Streptococcus pyogenes, 712, class symbols, read-out: MIC S PYO 712
Method: as §1

[11] = Table 2, in the presence of 0.002% Polysorbate 80
[12] = Table 2, in the presence of 0.002% Polysorbate 80, class symbols

Structure (SMILES) | MIC [1, 11] [µg/mL] | MIC [2, 12] [µg/mL] | MIC [3, 12] [µg/mL] | MIC [4, 11] [µg/mL] | MIC [5, 12] [µg/mL] | MIC [6, 11] [µg/mL] | MIC [7, 11] [µg/mL] | MIC (Enterococcus faecium 800; [11]) [µg/mL] | MIC [8, 11] [µg/mL] | MIC [9, 11] [µg/mL] | MIC [10, 11] [µg/mL] | other results
CNCCOc1cc(C(=O)NC(=O)C[C@@H]2NC(=O)[C@H](NC(=O)[C@@H](CC(C)C)NC)[C@H](O)c3ccc(c(Cl)c3)Oc3cc4cc(c3O[C@@H]3O[C@H](CO)[C@@H](O)[C@H](O)[C@H]3O)Oc3ccc(cc3Cl)[C@@H](O)[C@@H]3NC(=O)[C@H](NC(=O)[C@@H]4NC2=O)c2ccc(O)c(c2)-c2c(O)cc(O)cc2[C@@H](C(=O)NC2C4CC5CC(C4)CC2C5)NC3=O)cc(OCCNC)c1OCCNC (stereo partly shown) [Compound 162] | 2 to 4 | 1 to 2 | 2 to 4 | 0.5 to 1 | 0.01 to 0.5 | 1 to 2 | > 16 | 0.5 to 1 | 8 to 16 | 1 to 2 | 0.01 to 0.5 | 
CCOc1ccc(C(=O)NC(=O)C[C@@H]2NC(=O)[C@H](NC(=O)[C@@H](CC(C)C)NC)[C@H](O)c3ccc(c(Cl)c3)Oc3cc4cc(c3O[C@@H]3O[C@H](CO)[C@@H](O)[C@H](O)[C@H]3O[C@H]3C[C@](C)(N)[C@H](O)[C@H](C)O3)Oc3ccc(cc3Cl)[C@@H](O)[C@@H]3NC(=O)[C@H](NC(=O)[C@@H]4NC2=O)c2ccc(O)c(c2)-c2c(O)cc(O)cc2[C@@H](C(=O)NC2C4CC5CC(C4)CC2C5)NC3=O)cc1 (stereo partly shown) [Compound 63] | 0.01 to 0.5 | 0.01 to 0.5 | 2 to 4 | 0.01 to 0.5 | 0.01 to 0.5 | 0.01 to 0.5 | 4 to 8 | 0.01 to 0.5 | 1 to 2 | 0.01 to 0.5 | 0.01 to 0.5 | 
CCCCCCOc1ccc(S(=O)(=O)NC(=O)C[C@@H]2NC(=O)[C@H](NC(=O)[C@@H](CC(C)C)NC)[C@H](O)c3ccc(c(Cl)c3)Oc3cc4cc(c3O[C@@H]3O[C@H](CO)[C@@H](O)[C@H](O)[C@H]3O)Oc3ccc(cc3Cl)[C@@H](O)[C@@H]3NC(=O)[C@H](NC(=O)[C@@H]4NC2=O)c2ccc(O)c(c2)-c2c(O)cc(O)cc2[C@@H](C(=O)NC2C4CC5CC(C4)CC2C5)NC3=O)cc1 (stereo partly shown) [Compound 118] |  |  |  |  |  |  |  |  |  |  |  | MIC ([1]; Table 1): 2 to 4 µg/mL (≈ 1.19 to 2.38 µM); MIC ([2]; Table 1, class symbols): 1 to 2 µg/mL (≈ 0.595 to 1.19 µM); MIC ([3]; Table 1, class symbols): > 16 µg/mL; MIC ([4]; Table 1): 1 to 2 µg/mL (≈ 0.595 to 1.19 µM); MIC ([5]; Table 1, class symbols): 1 to 2 µg/mL (≈ 0.595 to 1.19 µM); MIC ([6]; Table 1): 0.5 to 1 µg/mL (≈ 0.298 to 0.595 µM); MIC ([7]; Table 1): 2 to 4 µg/mL (≈ 1.19 to 2.38 µM); MIC (Enterococcus faecium 800; Table 1): 0.01 to 0.5 µg/mL (≈ 0.00595 to 0.298 µM); MIC ([8]; Table 1): 1 to 2 µg/mL (≈ 0.595 to 1.19 µM); MIC ([9]; Table 1): 0.01 to 0.5 µg/mL (≈ 0.00595 to 0.298 µM); MIC ([10]; Table 1): 0.01 to 0.5 µg/mL (≈ 0.00595 to 0.298 µM)
CN[C@H](CC(C)C)C(=O)N[C@H]1C(=O)N[C@@H](CC(=O)NC(=O)c2ccc(OCCN)c(OCCN)c2)C(=O)N[C@H]2C(=O)N[C@H]3C(=O)N[C@H](C(=O)N[C@H](C(=O)NC4C5CC6CC(C5)CC4C6)c4cc(O)cc(O)c4-c4cc3ccc4O)[C@H](O)c3ccc(c(Cl)c3)Oc3cc2cc(c3O[C@@H]2O[C@H](CO)[C@@H](O)[C@H](O)[C@H]2O)Oc2ccc(cc2Cl)[C@H]1O (stereo partly shown) [Compound 159] | 0.5 to 1 | 0.5 to 1 | 0.5 to 1 | 0.5 to 1 | 0.01 to 0.5 | 0.5 to 1 | > 16 | 0.01 to 0.5 | 4 to 8 | 0.5 to 1 | 0.01 to 0.5 | 
CCCCOc1ccc(S(=O)(=O)NC(=O)C[C@@H]2NC(=O)[C@H](NC(=O)[C@@H](CC(C)C)NC)[C@H](O)c3ccc(c(Cl)c3)Oc3cc4cc(c3O[C@@H]3O[C@H](CN)[C@@H](O)[C@H](O)[C@H]3O)Oc3ccc(cc3Cl)[C@@H](O)[C@@H]3NC(=O)[C@H](NC(=O)[C@@H]4NC2=O)c2ccc(O)c(c2)-c2c(O)cc(O)cc2[C@@H](C(=O)NC2C4CC5CC(C4)CC2C5)NC3=O)cc1 (stereo partly shown) [Compound 99] |  |  |  |  |  |  |  |  |  |  |  | MIC ([1]; Table 1): 0.01 to 0.5 µg/mL (≈ 0.00606 to 0.303 µM); MIC ([2]; Table 1, class symbols): 0.01 to 0.5 µg/mL (≈ 0.00606 to 0.303 µM); MIC ([3]; Table 1, class symbols): 0.5 to 1 µg/mL (≈ 0.303 to 0.606 µM); MIC ([4]; Table 1): 0.01 to 0.5 µg/mL (≈ 0.00606 to 0.303 µM); MIC ([5]; Table 1, class symbols): 0.01 to 0.5 µg/mL (≈ 0.00606 to 0.303 µM); MIC ([6]; Table 1): 0.01 to 0.5 µg/mL (≈ 0.00606 to 0.303 µM); MIC ([7]; Table 1): 0.5 to 1 µg/mL (≈ 0.303 to 0.606 µM); MIC (Enterococcus faecium 800; Table 1): 0.01 to 0.5 µg/mL (≈ 0.00606 to 0.303 µM); MIC ([8]; Table 1): 0.01 to 0.5 µg/mL (≈ 0.00606 to 0.303 µM); MIC ([9]; Table 1): 0.5 to 1 µg/mL (≈ 0.303 to 0.606 µM); MIC ([10]; Table 1): 0.01 to 0.5 µg/mL (≈ 0.00606 to 0.303 µM)
CNCCOCc1cc(OCCNC)cc(C(=O)NC(=O)C[C@@H]2NC(=O)[C@H](NC(=O)[C@@H](CC(C)C)NC)[C@H](O)c3ccc(c(Cl)c3)Oc3cc4cc(c3O[C@@H]3O[C@H](CO)[C@@H](O)[C@H](O)[C@H]3O[C@H]3C[C@](C)(N)[C@H](O)[C@H](C)O3)Oc3ccc(cc3Cl)[C@@H](O)[C@@H]3NC(=O)[C@H](NC(=O)[C@@H]4NC2=O)c2ccc(O)c(c2)-c2c(O)cc(O)cc2[C@@H](C(=O)NC2C4CC5CC(C4)CC2C5)NC3=O)c1 (stereo partly shown) [Compound 153] | 0.01 to 0.5 | 0.01 to 0.5 | 0.5 to 1 | 0.01 to 0.5 | 0.01 to 0.5 | 0.01 to 0.5 | > 16 | 0.01 to 0.5 | > 16 | 0.01 to 0.5 | 0.01 to 0.5 | 
CCNCCOCc1cc(OCCNCC)cc(C(=O)NC(=O)C[C@@H]2NC(=O)[C@H](NC(=O)[C@@H](CC(C)C)NC)[C@H](O)c3ccc(c(Cl)c3)Oc3cc4cc(c3O[C@@H]3O[C@H](CO)[C@@H](O)[C@H](O)[C@H]3O[C@H]3C[C@](C)(N)[C@H](O)[C@H](C)O3)Oc3ccc(cc3Cl)[C@@H](O)[C@@H]3NC(=O)[C@H](NC(=O)[C@@H]4NC2=O)c2ccc(O)c(c2)-c2c(O)cc(O)cc2[C@@H](C(=O)NC2C4CC5CC(C4)CC2C5)NC3=O)c1 (stereo partly shown) [Compound 164] | 0.01 to 0.5 | 0.01 to 0.5 | 1 to 2 | 0.01 to 0.5 | 0.01 to 0.5 | 0.01 to 0.5 | > 16 | 0.01 to 0.5 | 8 to 16 | 0.01 to 0.5 | 0.01 to 0.5 | 
CN[C@H](CC(C)C)C(=O)N[C@H]1C(=O)N[C@@H](CC(=O)NC(=O)c2ccc(OCCOC)cc2)C(=O)N[C@H]2C(=O)N[C@H]3C(=O)N[C@H](C(=O)N[C@H](C(=O)NC4C5CC6CC(C5)CC4C6)c4cc(O)cc(O)c4-c4cc3ccc4O)[C@H](O)c3ccc(c(Cl)c3)Oc3cc2cc(c3O[C@@H]2O[C@H](CO)[C@@H](O)[C@H](O)[C@H]2O[C@H]2C[C@](C)(N)[C@H](O)[C@H](C)O2)Oc2ccc(cc2Cl)[C@H]1O (stereo partly shown) [Compound 65] | 0.5 to 1 | 0.01 to 0.5 | 2 to 4 | 0.5 to 1 | 0.01 to 0.5 | 0.01 to 0.5 | 4 to 8 | 0.01 to 0.5 | 1 to 2 | 0.01 to 0.5 | 0.01 to 0.5 | 
